According to patent US20230019236A1, “PROTEIN TYROSINE PHOSPHATASE INHIBITORS AND METHODS OF USE THEREOF” (Calico Life Sciences LLC, priority 2019, published 2023):

Target: T1, His tagged full-length PTP1B protein (Homo sapiens, UniProt P18031)
T1 construct: made in house
T1 sequence (P18031 with tags, fused parts or gaps): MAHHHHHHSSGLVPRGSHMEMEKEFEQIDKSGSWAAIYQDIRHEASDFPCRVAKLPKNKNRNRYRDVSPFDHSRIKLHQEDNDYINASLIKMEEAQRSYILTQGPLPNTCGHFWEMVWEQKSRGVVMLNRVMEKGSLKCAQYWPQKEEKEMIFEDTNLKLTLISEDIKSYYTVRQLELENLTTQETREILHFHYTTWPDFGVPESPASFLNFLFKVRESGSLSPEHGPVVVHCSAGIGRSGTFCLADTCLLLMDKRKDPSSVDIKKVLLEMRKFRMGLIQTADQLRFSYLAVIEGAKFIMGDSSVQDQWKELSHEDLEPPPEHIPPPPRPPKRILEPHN
Experiment: Mobility Shift Assay (MSA) used to determine potency of PTP1B inhibitors
Type: biochemical
Settings: Table 2
Description: The enzymatic assay used to determine activity is a mobility shift assay using a LabChip EZ Reader by Caliper Life Sciences. The enzymatic reaction was carried out in assay buffer (50 mM HEPES pH 7.5, 1 mM EGTA, 10 mM EDTA, 0.01% Tween® 20, and 2 mM DTT). […] The enzyme (at 0.5 nM) was incubated with compound for 10 minutes at room temperature. […] The % inhibition was then used to calculate the IC50 values.

Structure (SMILES) | IC50
CCS(=O)(=O)N1CC=C(c2ccc3cc(O)c(N4CC(=O)NS4(=O)=O)c(F)c3c2)C1 [Compound 295, 5-{7-[1-(ethanesulfonyl)-2,5-dihydro-1H-pyrrol-3-yl]-1-fluoro-3-hydroxynaphthalen-2-yl}-1λ^6,2,5-thiadiazolidine-1,1,3-trione] | < 1 nM
O=C(CNc1ccc2cc(O)c(N3CC(=O)NS3(=O)=O)c(F)c2c1)NCCC1CC1 [Compound 268, N-(2-cyclopropylethyl)-2-{[8-fluoro-6-hydroxy-7-(1,1,4-trioxo-1λ^6,2,5-thiadiazolidin-2-yl)naphthalen-2-yl]amino}acetamide] | 10 to 100 nM
CCN(CC)C(=O)COc1ccc2cc(O)c(N3CC(=O)NS3(=O)=O)c(F)c2c1 [Compound 282, N,N-diethyl-2-{[8-fluoro-6-hydroxy-7-(1,1,4-trioxo-1λ^6,2,5-thiadiazolidin-2-yl)naphthalen-2-yl]oxy}acetamide] | 10 to 100 nM
O=C1CN(c2c(O)cc3ccc(/C=C/C4CC4)cc3c2F)S(=O)(=O)N1 [Compound 239, 5-{7-[(E)-2-cyclopropylethenyl]-1-fluoro-3-hydroxynaphthalen-2-yl}-1λ^6,2,5-thiadiazolidine-1,1,3-trione] | 10 to 100 nM
CC(C)(CC#N)CCOc1ccc2cc(O)c(N3CC(=O)NS3(=O)=O)c(F)c2c1 [Compound 115, 5-{[8-fluoro-6-hydroxy-7-(1,1,4-trioxo-1λ^6,2,5-thiadiazolidin-2-yl)naphthalen-2-yl]oxy}-3,3-dimethylpentanenitrile] | 1 to 10 nM
O=C1CN(c2c(O)cc3ccc(C(=O)NCC4CC4)cc3c2F)S(=O)(=O)N1 [Compound 136, N-(cyclopropylmethyl)-8-fluoro-6-hydroxy-7-(1,1,4-trioxo-1λ^6,2,5-thiadiazolidin-2-yl)naphthalene-2-carboxamide] | 10 to 100 nM
O=C1CN(c2c(O)cc3ccc(OCC4CCNCC4)cc3c2F)S(=O)(=O)N1 [Compound 114, 5-{1-fluoro-3-hydroxy-7-[(piperidin-4-yl)methoxy]naphthalen-2-yl}-1λ^6,2,5-thiadiazolidine-1,1,3-trione] | 1 to 10 nM
O=C1CN(c2c(O)cc3ccc(OCCn4cccn4)cc3c2F)S(=O)(=O)N1 [Compound 188, 5-{1-fluoro-3-hydroxy-7-[2-(1H-pyrazol-1-yl)ethoxy]naphthalen-2-yl}-1λ^6,2,5-thiadiazolidine-1,1,3-trione] | 1 to 10 nM
O=C1CN(c2c(O)cc3ccc(OCCCC(F)(F)F)cc3c2F)S(=O)(=O)N1 [Compound 158, 5-[1-fluoro-3-hydroxy-7-(4,4,4-trifluorobutoxy)naphthalen-2-yl]-1λ^6,2,5-thiadiazolidine-1,1,3-trione] | 1 to 10 nM
CC(C)OCCNc1ccc2cc(O)c(N3CC(=O)NS3(=O)=O)c(F)c2c1 [Compound 172, 5-[1-fluoro-3-hydroxy-7-({2-[(propan-2-yl)oxy]ethyl}amino)naphthalen-2-yl]-1λ^6,2,5-thiadiazolidine-1,1,3-trione] | > 100 nM
C=C(c1ccc2cc(O)c(N3CC(=O)NS3(=O)=O)c(F)c2c1)c1c(C)c(C)c(C)c(C)c1C [Compound 241, 5-{1-fluoro-3-hydroxy-7-[1-(pentamethylphenyl)ethenyl]naphthalen-2-yl}-1λ^6,2,5-thiadiazolidine-1,1,3-trione] | > 100 nM
O=C1CN(c2c(O)cc3ccc(NCCC4CC4)cc3c2F)S(=O)(=O)N1 [Compound 224, 5-{7-[(2-cyclopropylethyl)amino]-1-fluoro-3-hydroxynaphthalen-2-yl}-1λ^6,2,5-thiadiazolidine-1,1,3-trione] | 1 to 10 nM
N#CCCCCOc1ccc2cc(O)c(N3CC(=O)NS3(=O)=O)c(F)c2c1 [Compound 111, 5-{[8-fluoro-6-hydroxy-7-(1,1,4-trioxo-1λ^6,2,5-thiadiazolidin-2-yl)naphthalen-2-yl]oxy}pentanenitrile] | 1 to 10 nM
N#CCCCCS(=O)(=O)N1CC=C(c2ccc3cc(O)c(N4CC(=O)NS4(=O)=O)c(F)c3c2)C1 [Compound 293, 5-{3-[8-fluoro-6-hydroxy-7-(1,1,4-trioxo-1λ^6,2,5-thiadiazolidin-2-yl)naphthalen-2-yl]-2,5-dihydro-1H-pyrrole-1-sulfonyl}pentanenitrile] | < 1 nM
CCS(=O)(=O)NCCOc1ccc2cc(O)c(N3CC(=O)NS3(=O)=O)c(F)c2c1 [Compound 311, N-(2-{[8-fluoro-6-hydroxy-7-(1,1,4-trioxo-1λ^6,2,5-thiadiazolidin-2-yl)naphthalen-2-yl]oxy}ethyl)ethanesulfonamide] | 1 to 10 nM
CC(C)C/C=C/c1ccc2cc(O)c(N3CC(=O)NS3(=O)=O)c(F)c2c1 [Compound 240, 5-{1-fluoro-3-hydroxy-7-[(1E)-4-methylpent-1-en-1-yl]naphthalen-2-yl}-1λ^6,2,5-thiadiazolidine-1,1,3-trione] | 1 to 10 nM
CC(C)(N)CCOc1ccc2cc(O)c(N3CC(=O)NS3(=O)=O)c(F)c2c1 [Compound 165, 5-[7-(3-amino-3-methylbutoxy)-1-fluoro-3-hydroxynaphthalen-2-yl]-1λ^6,2,5-thiadiazolidine-1,1,3-trione] | 1 to 10 nM
COCCCOc1ccc2cc(O)c(N3CC(=O)NS3(=O)=O)c(F)c2c1 [Compound 247, 5-[1-fluoro-3-hydroxy-7-(3-methoxypropoxy)naphthalen-2-yl]-1λ^6,2,5-thiadiazolidine-1,1,3-trione] | 1 to 10 nM
CC(C)CNc1ccc2cc(O)c(N3CC(=O)NS3(=O)=O)c(F)c2c1 [Compound 201, 5-{1-fluoro-3-hydroxy-7-[(2-methylpropyl)amino]naphthalen-2-yl}-1λ^6,2,5-thiadiazolidine-1,1,3-trione] | 1 to 10 nM
N#CCCCOc1ccc2cc(O)c(N3CC(=O)NS3(=O)=O)c(F)c2c1 [Compound 129, 4-{[8-fluoro-6-hydroxy-7-(1,1,4-trioxo-1λ^6,2,5-thiadiazolidin-2-yl)naphthalen-2-yl]oxy}butanenitrile] | < 1 nM

Continued, values first:

IC50 | Structure (SMILES)
10 to 100 nM | O=C1CN(c2c(O)cc3ccc(C4=CCOC4)cc3c2F)S(=O)(=O)N1 [Compound 263, 5-[7-(2,5-dihydrofuran-3-yl)-1-fluoro-3-hydroxynaphthalen-2-yl]-1λ^6,2,5-thiadiazolidine-1,1,3-trione]
1 to 10 nM | O=C1CN(c2c(O)cc3ccc(OC4COC4)cc3c2F)S(=O)(=O)N1 [Compound 274, 5-{1-fluoro-3-hydroxy-7-[(oxetan-3-yl)oxy]naphthalen-2-yl}-1λ^6,2,5-thiadiazolidine-1,1,3-trione]
1 to 10 nM | N#Cc1c[nH]c(-c2ccc3cc(O)c(N4CC(=O)NS4(=O)=O)c(F)c3c2)n1 [Compound 321, 2-[8-fluoro-6-hydroxy-7-(1,1,4-trioxo-1λ^6,2,5-thiadiazolidin-2-yl)naphthalen-2-yl]-1H-imidazole-4-carbonitrile]
1 to 10 nM | N#CC1(CCOc2ccc3cc(O)c(N4CC(=O)NS4(=O)=O)c(F)c3c2)CC1 [Compound 159, 1-(2-{[8-fluoro-6-hydroxy-7-(1,1,4-trioxo-1λ^6,2,5-thiadiazolidin-2-yl)naphthalen-2-yl]oxy}ethyl)cyclopropane-1-carbonitrile]
< 1 nM | COCCS(=O)(=O)N1CC=C(c2ccc3cc(O)c(N4CC(=O)NS4(=O)=O)c(F)c3c2)C1 [Compound 286, 5-{1-fluoro-3-hydroxy-7-[1-(2-methoxyethanesulfonyl)-2,5-dihydro-1H-pyrrol-3-yl]naphthalen-2-yl}-1λ^6,2,5-thiadiazolidine-1,1,3-trione]
1 to 10 nM | O=C1CN(c2c(O)cc3ccc(C4=CCN(CC5CC5)C4)cc3c2F)S(=O)(=O)N1 [Compound 242, 5-{7-[1-(cyclopropylmethyl)-2,5-dihydro-1H-pyrrol-3-yl]-1-fluoro-3-hydroxynaphthalen-2-yl}-1λ^6,2,5-thiadiazolidine-1,1,3-trione]
10 to 100 nM | O=C1CN(c2c(O)cc3ccc(CCC4CC4)cc3c2F)S(=O)(=O)N1 [Compound 209, 5-[7-(2-cyclopropylethyl)-1-fluoro-3-hydroxynaphthalen-2-yl]-1λ^6,2,5-thiadiazolidine-1,1,3-trione]
1 to 10 nM | CCC(=O)CCOc1ccc2cc(O)c(N3CC(=O)NS3(=O)=O)c(F)c2c1 [Compound 155, 5-{1-fluoro-3-hydroxy-7-[(3-oxopentyl)oxy]naphthalen-2-yl}-1λ^6,2,5-thiadiazolidine-1,1,3-trione]
10 to 100 nM | CNCCCc1ccc2cc(O)c(N3CC(=O)NS3(=O)=O)c(F)c2c1 [Compound 139, 5-{1-fluoro-3-hydroxy-7-[3-(methylamino)propyl]naphthalen-2-yl}-1λ^6,2,5-thiadiazolidine-1,1,3-trione]
1 to 10 nM | CC(C)OCCOc1ccc2cc(O)c(N3CC(=O)NS3(=O)=O)c(F)c2c1 [Compound 215, 5-(1-fluoro-3-hydroxy-7-{2-[(propan-2-yl)oxy]ethoxy}naphthalen-2-yl)-1λ^6,2,5-thiadiazolidine-1,1,3-trione]
1 to 10 nM | O=C1CN(c2c(O)cc3ccc(C4CN(C(=O)C5CC5)C4)cc3c2F)S(=O)(=O)N1 [Compound 207, 5-{7-[1-(cyclopropanecarbonyl)azetidin-3-yl]-1-fluoro-3-hydroxynaphthalen-2-yl}-1λ^6,2,5-thiadiazolidine-1,1,3-trione]
1 to 10 nM | O=C1CN(c2c(O)cc3ccc(OCCOC4CCC4)cc3c2F)S(=O)(=O)N1 [Compound 214, 5-{7-[2-(cyclobutyloxy)ethoxy]-1-fluoro-3-hydroxynaphthalen-2-yl}-1λ^6,2,5-thiadiazolidine-1,1,3-trione]
